Measurements from patent US20230174454A1, “PROCESS OF SYNTHESIZING AND PURIFYING (3R)-HYDROXYBUTYL (3R)-HYDROXYBUTANOATE” (Genomatica, Inc., priority 2020, published 2023).

Key:
[1] = Study to determine the boiling point of (3R)-hydroxybutyl (3R)-hydroxybutyrate, with colour change on boiling; format: physicochemical
Experimental: A study to determine the boiling point of (3R)-hydroxybutyl (3R)-hydroxybutyrate was performed.

Miscibility with water = format: physicochemical
Text: In one specific embodiment, the compound of interest is (R)-3-hydroxybutyl (R)-3-hydroxybutanoate.

Measured Boiling Point ([1]; Pressure 7 mbar): 155-159 °C
Measured Boiling Point ([1]; Pressure 15 mbar): 165-169 °C
Measured Boiling Point ([1]; Pressure 30 mbar): 174-179 °C
Measured Boiling Point ([1]; Pressure 60 mbar): 186-191 °C
Measured Boiling Point ([1]; Pressure 80 mbar): 197-204 °C
Measured Boiling Point ([1]; Pressure 120 mbar): 208-212 °C
Measured Boiling Point ([1]; Pressure 240 mbar): 215-219 °C
Measured Boiling Point ([1]; Pressure 500 mbar): 224-229 °C
Measured Boiling Point ([1]; Pressure 1000 mbar): 274-280 °C
Color Change ([1]; boiling at 7 mbar): no color change after 2 h of boiling
Color Change ([1]; boiling at 15 mbar): no color change after 2 h of boiling
Color Change ([1]; boiling at 30 mbar): no color change after 2 h of boiling
Color Change ([1]; boiling at 60 mbar): no color change after 2 h of boiling
Color Change ([1]; boiling at 80 mbar): no color change after 2 h of boiling
miscibility with water (Miscibility with water; 50/50 (w/w) mixture of water/(R)-3-hydroxybutyl (R)-3-hydroxybutanoate): completely miscible with water
miscibility with water (Miscibility with water; 60/40 (w/w) mixture of water/(R)-3-hydroxybutyl (R)-3-hydroxybutanoate): completely miscible with water
SMILES: C[C@@H](O)CCOC(=O)C[C@@H](C)O [(3R)-hydroxybutyl (3R)-hydroxybutyrate, (R)-3-hydroxybutyl (R)-3-hydroxybutanoate]
Color Change ([1]; boiling at 120 mbar): no color change after 1 h of boiling, very slight yellow tint is present after 1 h and 30 min of boiling
Color Change ([1]; boiling at 240 mbar): no color change after 1 h of boiling, very slight yellow tint is present after 1 h and 30 min of boiling
Color Change ([1]; boiling at 500 mbar): no color change after 1 h of boiling, very slight yellow tint is present after 1 h and 30 min of boiling
Color Change ([1]; boiling at 1000 mbar): slight yellow tint is present after 1 hour of boiling
